From patent publication US12600732B2, “Bifunctional compounds for degrading BTK via ubiquitin proteosome pathway” (NURIX THERAPEUTICS, INC., priority 2019, dated 2026) come the findings set out here.

The nature of data set [1]: Compound plasma exposure in cyno DRF study. It is filed as in vivo. The settings on record: cynomolgus monkey, po. As to the method: This example evaluates compound plasma concentration which results in in vivo BTK and/or Aiolos degradation in cyno. The data in the table below is from a study in which animals were dosed daily with the designated oral dose. Analysis for compound concentration in plasma was performed twenty-four hours following the previous dose.

In data set [2] the target is T1, BTK (Mus musculus, UniProt P35991).
T1 construct: from tissue; host or cells: mouse blood B cells / splenocytes (CD-1 or BALB/c)
In words: In vivo degradation of BTK in mouse PD experiments with oral dosing. The method in brief:
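CD-1 or BALB/c mice dosed by oral gavage, screens at 90 mg/kg for 6 h, later at lower doses/longer times. Blood or splenocyte BTK measured by intracellular flow cytometry (or HTRF); % degradation from B-cell minus T-cell BTK geometric MFI, relative to vehicle.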

Data set [3] addresses BTK C481S (Homo sapiens, UniProt Q06187, C481S). In words: BTK degradation (Total BTK HTRF) in TMD8 cells expressing BTK-C481S. Format: cell-based. Further details: endogenous in cells; host or cells: TMD8 BTK-C481S (clone2C3), Cas9 RNP knock-in. The settings on record: TMD8 BTK-C481S (clone2C3) cells, treatment time 4 h. The gist of the method: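 TMD8 cells expressing BTK-C481S were treated for four hours, then lysed for 30 min. Total BTK was measured by HTRF with Eu-cryptate donor and d2 acceptor antibodies as the 665/620 nm ratio, minus donor-only background. DC50 came from four-parameter fits of signal relative to DMSO-treated cells.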
On the technique in general: TR-FRET usually uses a lanthanide donor and a delayed reading to cut background.

Data set [4] in a line: Compound plasma exposure in mouse (CD-1), daily oral dosing, same table as the cyno DRF study. Format: in vivo. The settings on record: CD-1, mouse.
The target of data set [5] is BTK (Homo sapiens, UniProt Q06187). Description: BTK degradation (Total BTK HTRF) in Rec-1 cells (Mantle Cell Lymphoma model). Particulars: treatment time 4 h. It is filed as cell-based. On the set-up: endogenous in cells; host or cells: TMD8, Mino, Rec-1. The protocol:
BTK levels were determined using Cisbio Total-BTK HTRF (Homologous Time-Resolved Fluorescence) kit (63ADK064PEG) according to the manufacturer's protocol. Briefly, cells were incubated in 1× supplied lysis buffer for 30 minutes. In an opaque white low volume 96-well plate (Cisbio, 66PL96005), cell lysate was combined with two different specific BTK antibodies, one conjugated with Eu^3+-Cryptate FRET donor and one conjugated with d2 FRET acceptor. Assay controls include wells containing cell lysate with only the Eu^3+-Cryptate FRET donor antibody and wells containing both HTRF antibodies and lysis buffer without cells or control lysate provided by Cisbio. HTRF ratio was calculated as (acceptor signal at 665 nm/donor signal at 620 nm)×10^4. Background HTRF levels were determined from the control well containing the donor, but no acceptor, antibody. Background HTRF levels were subtracted from all samples. Readouts were reported as HTRF levels relative to HTRF levels of DMSO-treated cells. Four-parameter non-linear regressions were performed in GraphPad Prism 7.02 to obtain DC50 values.
This example evaluates the potency of CTMs in a model of Mantle Cell Lymphoma (MCL). To evaluate potential therapeutic indications, BTK CTMs were assayed in models of Mantle Cell Lymphoma as with the TMD8 cells (ABC-DLBCL) above. Tested CTMs had similar potencies for BTK degradation in the MCL cell lines (Mino and Rec-1) and TMD8 cells.

The subject of data set [6] is primary human T cells. In words: T cell activation assay, IL-2 secretion (ELISA). It is filed as cell-based. Particulars: for IL-2 secretion compared to baseline (anti-CD3/anti-CD28 stimulation alone): primary human T cells. The method in brief: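 Primary human T cells stimulated via TCR with anti-CD3/anti-CD28 in the presence of test compound. IL-2 secretion measured by ELISA; surface CD25 and CD69 by flow cytometry. Values are fold-change versus anti-CD3/anti-CD28 stimulation without compound.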

Setting [7] is: 10 mg/kg, 10 mg/kg PO, 1 day of dosing.
Setting [8] is: 10 mg/kg, 10 mg/kg PO, 14 days of dosing.
[9] abbreviates: 30 mg/kg, 30 mg/kg PO, 1 day of dosing.
The mark [10] stands for this setting: 30 mg/kg, 30 mg/kg PO, 14 days of dosing.
Setting [11] is: 100 mg/kg, 100 mg/kg PO, 1 day of dosing.
[12] abbreviates: 100 mg/kg, 100 mg/kg PO, 14 days of dosing.
[13] abbreviates: oral dose 10 mg/kg, 24 h, splenocytes, HTRF.
Where [14] appears, read: oral dose 30 mg/kg, 24 h, splenocytes, HTRF.
[15] abbreviates: 300 mg/kg, 300 mg/kg PO, 1 day of dosing.
The mark [16] stands for this setting: 300 mg/kg, 300 mg/kg PO, 14 days of dosing.
[17] abbreviates: 1.4 nM, fold-change of response relative to baseline.
[18] abbreviates: 37 nM, fold-change of response relative to baseline.
The mark [19] stands for this setting: 333 nM, fold-change of response relative to baseline (stimulation without compound).
Where [20] appears, read: oral dose 30 mg/kg, 24 h, blood, flow cytometry.

`CN1CCN([C@@H]2CCCN(c3cnc(C(N)=O)c(Nc4ccc(C5CCN(C[C@H]6CCN(c7ccc8c(c7)C(=O)N(C7CCC(=O)NC7=O)C8=O)C6)CC5)cc4)n3)C2)C1=O` (stereo partly drawn) [Compound 44]: the Cmax (in general, the highest concentration seen after dosing) in data set [1] (setting [7]) worked out at 10.6 nM; in data set [1] (setting [8]), 34 nM; in data set [1] (setting [9]) it was 18 nM; in data set [1] (setting [10]), 55.5 nM; in data set [1] (setting [12]) it was 94.2 nM; in data set [4] (setting [9]), 230 nM. Further, the Cmax in data set [4] (setting [10]) was 250 nM; in data set [4] (setting [11]) it was 400 nM; in data set [4] (setting [12]), 590 nM; in data set [4] (setting [15]) it was 740 nM; in data set [4] (setting [16]), 940 nM. Moreover, the AUC – broadly, the area under the concentration-time curve, a measure of exposure – in data set [1] (setting [8]) is 0.467 µM·h; in data set [1] (setting [10]) it was 0.794 µM·h; in data set [1] (setting [11]) it was 0.294 µM·h; in data set [4] (setting [9]) it was 2.32 µM·h; in data set [4] (setting [10]), 2.22 µM·h; in data set [4] (setting [11]) it was 4.15 µM·h. Further, the AUC in data set [4] (setting [12]) turned out to be 8.07 µM·h; in data set [4] (setting [15]), 9.53 µM·h; in data set [4] (setting [16]), 12.8 µM·h. Moreover, the “% BTK Remaining” value was found to be 58% in data set [2] (dose 1(IV) mg/kg, 24 h, splenocytes, HTRF); 58% in data set [2] (oral dose 1 mg/kg, 6 h, splenocytes, HTRF); 32% in data set [2] (oral dose 3 mg/kg, 6 h, splenocytes, HTRF); 11% in data set [2] (oral dose 10 mg/kg, 6 h, splenocytes, HTRF); 34% in data set [2] (setting [13]); 4% in data set [2] (oral dose 30 mg/kg, 6 h, splenocytes, HTRF). The “% BTK Remaining” value in data set [2] (setting [14]) stood at 23%; in data set [2] (oral dose 90 mg/kg, 6 h, splenocytes, HTRF) it was 4%. In addition, the results for the DC50 in data set [3] and in data set [5] were 1.8 nM and 1 nM, respectively. The results for the “IL-2 Secretion Anti-CD3/Anti-CD28 Stimulation” value in data set [6] (setting [17]), in data set [6] (setting [18]) and in data set [6] (setting [19]) were 1.43, 3.49 and 3.75, respectively. Moreover, the “IL-2 secretion compared to baseline (anti-CD3/anti-CD28 stimulation alone)” value in data set [6] is on record as “increased IL-2 secretion but not to the level observed with IMiDs”.

Consider `NC(=O)c1ncc(N2CCCCC2)nc1Nc1ccc(C2CCN(C[C@@H]3CCN(c4ccc5c(c4)C(=O)N(C4CCC(=O)NC4=O)C5=O)C3)CC2)cc1` (stereo partly drawn) [Compound 149], for which the Cmax amounted to 42 nM in data set [1] (setting [7]); 49 nM in data set [1] (setting [8]); 51 nM in data set [1] (setting [9]); 88 nM in data set [1] (setting [10]); 159 nM in data set [1] (setting [12]); 940 nM in data set [4] (setting [9]). In addition, the Cmax in data set [4] (setting [10]) stood at 1640 nM; in data set [4] (setting [11]), 2050 nM; in data set [4] (setting [12]), 2410 nM; in data set [4] (setting [15]), 2610 nM; in data set [4] (setting [16]), 4100 nM. The AUC in data set [1] (setting [8]) stood at 0.763 µM·h; in data set [1] (setting [10]), 1.48 µM·h; in data set [1] (setting [11]), 0.714 µM·h; in data set [4] (setting [9]) it was 12.2 µM·h; in data set [4] (setting [10]), 22.8 µM·h; in data set [4] (setting [11]), 27.7 µM·h. In addition, the figures for the AUC in data set [4] (setting [12]), in data set [4] (setting [15]) and in data set [4] (setting [16]) were 33.4 µM·h, 38.6 µM·h and 64.2 µM·h, respectively. Besides, the “% BTK Remaining” value in data set [2] (oral dose 10 mg/kg, 24 h, blood, flow cytometry) is on record as 27%; in data set [2] (setting [13]), 21%; in data set [2] (setting [20]), 11%; in data set [2] (setting [14]), 8%; in data set [2] (oral dose 90 mg/kg, 24 h, blood, flow cytometry), 1%; in data set [2] (oral dose 90 mg/kg, 24 h, splenocytes, HTRF), 1%. Moreover, the values for the DC50 in data set [3] and in data set [5] were 14.4 nM and 4 nM, respectively. For the same compound, the results for the “IL-2 Secretion Anti-CD3/Anti-CD28 Stimulation” value in data set [6] (setting [17]), in data set [6] (setting [18]) and in data set [6] (setting [19]) were 1.86, 3.63 and 4.24, respectively. For the same compound, in data set [6], the “IL-2 secretion compared to baseline (anti-CD3/anti-CD28 stimulation alone)” value is reported as “increased IL-2 secretion but not to the level observed with IMiDs”.

Regarding `CN1CCN([C@H]2CCCN(c3cnc(C(N)=O)c(Nc4ccc(C5CCN(CC6CCN(c7ccc(C(=O)NC8CCC(=O)NC8=O)nc7)CC6)CC5)cc4)n3)C2)C1=O` (stereo partly drawn) [Compound 130], the Cmax in data set [1] (setting [7]) was found to be 20 nM; in data set [1] (setting [8]), 28 nM; in data set [1] (setting [9]), 55 nM; in data set [1] (setting [10]) it was 54 nM; in data set [1] (setting [12]) it was 177 nM; in data set [4] (setting [9]), 2200 nM. Moreover, the Cmax stood at 1700 nM in data set [4] (setting [10]); 3800 nM in data set [4] (setting [11]); 3400 nM in data set [4] (setting [12]); 5100 nM in data set [4] (setting [15]); 5200 nM in data set [4] (setting [16]). The AUC in data set [1] (setting [8]) stood at 0.387 µM·h; in data set [1] (setting [10]) it was 0.844 µM·h; in data set [1] (setting [11]), 1.4 µM·h; in data set [4] (setting [9]) it was 23.2 µM·h; in data set [4] (setting [10]), 21.1 µM·h; in data set [4] (setting [11]) it was 51.3 µM·h. Moreover, the AUC is 49.8 µM·h in data set [4] (setting [12]), 67 µM·h in data set [4] (setting [15]) and 72.2 µM·h in data set [4] (setting [16]). In data set [2] (setting [20]), the “% BTK Remaining” value is recorded as 5%. In addition, the DC50 (in general, the concentration at which degradation of the target reaches its halfway point) came out at 1.8 nM in data set [3] and 2 nM in data set [5]. Further, the “IL-2 Secretion Anti-CD3/Anti-CD28 Stimulation” value stood at 1.19 in data set [6] (setting [17]), 1.42 in data set [6] (setting [18]) and 2.02 in data set [6] (setting [19]).

Take `CN1CCN([C@@H]2CCCN(c3cnc(C(N)=O)c(Nc4ccc(C5CCN(CC6CCN(c7ccc8c(=O)n(C9CCC(=O)NC9=O)ccc8c7)CC6)CC5)cc4)n3)C2)C1=O` (stereo partly drawn) [Compound 72]: the “% BTK Remaining” value in data set [2] (setting [14]) was found to be 20%. Further, in data set [3], half-maximal degradation (DC50) was put at 2 nM.

For `CN1CCN([C@@H]2CCCN(c3cnc(C(N)=O)c(Nc4ccc(C5CCN(CC6CCN(c7ccc(-c8nn(C9CCC(=O)NC9=O)c(=O)n8C)cc7)CC6)CC5)cc4)n3)C2)C1=O` (stereo partly drawn) [Compound 121], the “% BTK Remaining” value in data set [2] (oral dose 0.3 mg/kg, 24 h, blood, flow cytometry) was 102%; in data set [2] (oral dose 3 mg/kg, 24 h, blood, flow cytometry) it was 68%; in data set [2] (setting [20]), 28%; in data set [2] (setting [14]), 33%. The compound further came in with a DC50 in data set [3] of 4.1 nM.
